Experimental data: ChEMBL document CHEMBL4610081, “Anti-inflammatory Metabolites from Chaetomium nigricolor” (J Nat Prod, 2020)
Activity calls are given as the source filed them. The rule behind the calls is not given here.

System: RAW264.7
Assay: Antiinflammatory activity against mouse RAW264.7 cells assessed as inhibition of LPS-induced NO production preincubated for 3 hrs followed by LPS-stimulation and measured after 24 hrs by Griess reagent based assay
Type: functional, cell-based

Question: With `O=c1ccoc(Cc2ccccc2)c1` as the molecule, how does the Activity read?
Answer: inactive
